The results in this text go back to ChEMBL document CHEMBL3046612, “Design, multicomponent synthesis, and bioactivities of novel neonicotinoid analogues with 1,4-dihydropyridine scaffold” (2010).

The term mortality denotes the share of the test organisms that died. The LC50 is the concentration that kills 50% of the test population.

Experiment [1] deals with Aphis craccivora. Nature of the experiment: Insecticidal activity against Aphis craccivora (cowpea aphid) in tender shoots of soybean assessed as mortality at 500 mg/L measured after 1 days (reference value: 4.3%). Conditions: 24 h. It counts as functional.
The test system of experiment [2] is Aphis craccivora. Nature of the experiment: Insecticidal activity against Aphis craccivora (cowpea aphid) in tender shoots of soybean assessed as mortality measured after 1 days. It counts as functional. Conditions: 24 h.

As to `N#CC1=C(N)N2CCN(Cc3ccc(Cl)nc3)C2=C([N+](=O)[O-])C1c1ccc([N+](=O)[O-])cc1` (stereo unspecified), the mortality at 500 µg/mL in experiment [1] is 77%.
The same measure, in the same setting: the value for `Cc1ccc(C2C(C#N)=C(N)N3CCN(Cc4ccc(Cl)nc4)C3=C2[N+](=O)[O-])c(F)c1` (stereo unspecified) was 72.9%.
`Cc1c(F)cccc1C1C(C#N)=C(N)N2CCN(Cc3ccc(Cl)nc3)C2=C1[N+](=O)[O-]` (stereo unspecified): the mortality at 500 µg/mL in experiment [1] was determined as 100%. Also, the LC50 in experiment [2] was determined as 3.45 µM.
As for `N#CC1=C(N)N2CCN(Cc3ccc(Cl)nc3)C2=C([N+](=O)[O-])C1c1ccc(C#N)cc1` (stereo unspecified), the mortality at 500 µg/mL in experiment [1] came out at 93.7%. In addition, in experiment [2], the LC50 turned out to be 175 µM.
Turning to `N#CC1=C(N)N2CCN(Cc3ccc(Cl)nc3)C2=C([N+](=O)[O-])C1c1ccc(Cl)cc1Cl` (stereo unspecified), the mortality at 500 µg/mL in experiment [1] came to 93.4%. Moreover, the LC50 in experiment [2] is 133 µM.
Regarding `N#CC1=C(N)N2CCN(Cc3ccc(Cl)nc3)C2=C([N+](=O)[O-])C1c1ccc(Cl)cc1F` (stereo unspecified), the mortality at 500 µg/mL in experiment [1] worked out at 88%.
As for `Cc1ccc(F)cc1C1C(C#N)=C(N)N2CCN(Cc3ccc(Cl)nc3)C2=C1[N+](=O)[O-]` (stereo unspecified), the mortality at 500 µg/mL in experiment [1] was 100%. Further, in experiment [2], the LC50 turned out to be 96.1 µM.
`N#CC1=C(N)N2CCN(Cc3ccc(Cl)nc3)C2=C([N+](=O)[O-])C1c1cccc([N+](=O)[O-])c1` (stereo unspecified): the mortality at 500 µg/mL in experiment [1] is 91.9%. In addition, the LC50 in experiment [2] was 79 µM.
As to `N#CC1=C(N)N2CCN(Cc3ccc(Cl)nc3)C2=C([N+](=O)[O-])C1c1cccc(Br)c1` (stereo unspecified), in experiment [1], the mortality at 500 µg/mL was found to be 91.8%. Moreover, the LC50 in experiment [2] worked out at 197 µM.
In the case of `N#CC1=C(N)N2CCN(Cc3ccc(Cl)nc3)C2=C([N+](=O)[O-])C1c1ccccc1` (stereo unspecified), in experiment [1], the mortality at 500 µg/mL worked out at 83.1%.
For the compound `COc1ccc(C2C(C#N)=C(N)N3CCN(Cc4ccc(Cl)nc4)C3=C2[N+](=O)[O-])cc1` (stereo unspecified), the mortality at 500 µg/mL in experiment [1] is 100%. Moreover, the LC50 in experiment [2] worked out at 9.75 µM.
Regarding `Cc1cc(C2C(C#N)=C(N)N3CCN(Cc4ccc(Cl)nc4)C3=C2[N+](=O)[O-])c(Br)cc1F` (stereo unspecified), the mortality at 500 µg/mL in experiment [1] came out at 75.9%.
With `N#CC1=C(N)N2CCN(Cc3ccc(Cl)nc3)C2=C([N+](=O)[O-])C1c1ccc(Cl)cc1C(F)(F)F` (stereo unspecified), in experiment [1], the mortality at 500 µg/mL was 100%. Also, the LC50 in experiment [2] is 61.6 µM.
In the case of `N#CC1=C(N)N2CCN(Cc3ccc(Cl)nc3)C2=C([N+](=O)[O-])C1c1ccc(OC(F)(F)F)cc1` (stereo unspecified), in experiment [1], the mortality at 500 µg/mL was determined as 100%. Moreover, the 50% lethal concentration (LC50) in experiment [2] was determined as 98 µM.
As for `O=[N+]([O-])/N=C1\NCCN1Cc1ccc(Cl)nc1` [IMIDACLOPRID], the mortality at 500 µg/mL in experiment [1] turned out to be 100%.
With `N#CC1=C(N)N2CCN(Cc3ccc(Cl)nc3)C2=C([N+](=O)[O-])C1c1ccc(Br)cc1Cl` (stereo unspecified), the mortality at 500 µg/mL in experiment [1] came out at 85%.
Same read-out and setting: the result for `N#CC1=C(N)N2CCN(Cc3ccc(Cl)nc3)C2=C([N+](=O)[O-])C1c1cccc(C#N)c1` (stereo unspecified) reads 80%.
